Measurements as given in US9393221B2, “Methods and compounds for reducing intracellular lipid storage” (THE GENERAL HOSPITAL CORPORATION, priority 2011, dated 2016).
Where a name gives a salt, the structure may show the parent alone.

What follows are compounds tested on ATGL-KO iPSCs (assay: High throughput iPSC chemical screening, Oil Red O (ORO) lipid accumulation). Details: not given.
Format: cell-based, mouse
Wherever Z-score is given: test concentration or dose not given here.

Question: With `C[C@]12CC[C@H](O)C[C@@H]1CC[C@@H]1[C@@H]2CC[C@]2(C)C(=O)CC[C@@H]12` [Epiandrosterone] as the compound, how does the Z-score read?
Answer: −0.835

Question: For `CNC(=O)Oc1ccc2c(c1)[C@]1(C)CCN(C)[C@@H]1N2C.CNC(=O)Oc1ccc2c(c1)[C@]1(C)CCN(C)[C@@H]1N2C.O=S(=O)(O)O` [Eserine sulfate, physostigmine sulfate], which Z-score is on record?
Answer: 0.899

Same assay, conditions: glycolytic switch compounds

Question: Which “Rank in normalized ORO score from screen” value does the source give for `O=c1c2ccccc2[se]n1-c1ccccc1` [Ebselen] here?
Answer: 52

Question: For `C#C[C@]1(OC(C)=O)CC[C@H]2[C@@H]3CCC4=C[C@@H](OC(C)=O)CC[C@@H]4[C@H]3CC[C@@]21C` [Ethynodiol diacetate], which “Rank in normalized ORO score from screen” value is on record?
Answer: 61

Same assay, conditions: normalized ORO level vs DMSO-treated cells; compound present during 7 days differentiation, 96-well; negative = decrease in lipid accumulation

Question: How did the Z-score turn out when `CC(C)[C@@]1(NC(=O)[C@@H]2C[C@@H]3c4cccc5[nH]cc(c45)C[C@H]3N(C)C2)O[C@@]2(O)[C@@H]3CCCN3C(=O)[C@H](Cc3ccccc3)N2C1=O` [Dihydroergocristine mesylate] was run?
Answer: 0.9157

Question: With `CN[C@@H]1[C@H](O[C@H]2[C@H](O[C@H]3[C@H](O)[C@@H](O)[C@H](NC(=N)N)[C@@H](O)[C@@H]3NC(=N)N)O[C@@H](C)[C@]2(O)CO)O[C@@H](CO)[C@H](O)[C@H]1O` [Dihydrostreptomycin sulfate] as the compound, how does the Z-score read?
Answer: 1.253

Question: Which Z-score does the source give for `COc1cc(C(=O)OCCCN2CCCN(CCCOC(=O)c3cc(OC)c(OC)c(OC)c3)CC2)cc(OC)c1OC` [Dilazep dihydrochloride] here?
Answer: 0.1967

Question: With `CN(C(=O)C(Cl)Cl)c1ccc(OC(=O)c2ccco2)cc1` [Diloxanide furoate] as the compound, how does the Z-score read?
Answer: −0.9785

Question: Which Z-score does the source give for `COc1ccc([C@@H]2Sc3ccccc3N(CCN(C)C)C(=O)[C@@H]2OC(C)=O)cc1` [Diltiazem hydrochloride] here?
Answer: −0.974

Question: For `CN(C)CCCSC(=N)N` [Dimaprit dihydrochloride], which Z-score is on record?
Answer: −1.2574

Question: How did the Z-score turn out when `CN(C)CCOC(c1ccccc1)c1ccccc1.Cn1c(=O)c2[nH]c(Cl)nc2n(C)c1=O` [Dimenhydrinate] was run?
Answer: −0.7776

Question: How did the Z-score turn out when `CC1(C)OC(=O)NC1=O` [Dimethadione] was run?
Answer: −0.9493

Question: For `CCCCc1cc2ccccc2c(OCCN(C)C)n1` [Dimethisoquin hydrochloride], which Z-score is on record?
Answer: 0.4631

Question: `CCCCC[C@H](O)/C=C/[C@@H]1[C@@H](C/C=C\CCCC(=O)O)[C@@H](O)C[C@H]1O` [Dinoprost trometamol] was tested. Which Z-score did it give?
Answer: 0.7612

Question: `COc1ccc(C(=O)c2ccccc2O)c(O)c1` [Dioxybenzone] was tested. Which Z-score did it give?
Answer: −1.6584

Question: How did the Z-score turn out when `O=C(Nc1ccccc1)OCC(CN1CCCCC1)OC(=O)Nc1ccccc1` (stereo not drawn) [Diperodon hydrochloride] was run?
Answer: −0.6048

Question: `C[N+]1(C)CCC(=C(c2ccccc2)c2ccccc2)CC1` [Diphemanil methylsulfate] was tested. Which Z-score did it give?
Answer: 0.6045

Question: `CN(C)CCOC(c1ccccc1)c1ccccc1` [Diphenhydramine hydrochloride] was tested. Which Z-score did it give?
Answer: 1.308

Question: How did the Z-score turn out when `OC(CCCN1CCCCC1)(c1ccccc1)c1ccccc1` [Diphenidol hydrochloride] was run?
Answer: −0.7294

Question: Which Z-score does the source give for `CN1CCC(OC(c2ccccc2)c2ccccc2)CC1` [Diphenylpyraline hydrochloride] here?
Answer: 0.246

Question: `CNCC(O)c1ccc(OC(=O)C(C)(C)C)c(OC(=O)C(C)(C)C)c1` (stereo not drawn) [Dipivefrin hydrochloride] was tested. Which Z-score did it give?
Answer: 1.363

Question: For `Cn1c(=O)c2c(ncn2CC(O)CO)n(C)c1=O` (stereo not drawn) [Diprophylline], which Z-score is on record?
Answer: −0.3767

Question: `OCCN(CCO)c1nc(N2CCCCC2)c2nc(N(CCO)CCO)nc(N3CCCCC3)c2n1` [Dipyridamole] was tested. Which Z-score did it give?
Answer: 0.4282

Question: How did the Z-score turn out when `Cc1c(N(C)CS(=O)(=O)[O-])c(=O)n(-c2ccccc2)n1C.[Na+]` [Dipyrone] was run?
Answer: 1.061

Question: `CC(C)N(CCC(C(N)=O)(c1ccccc1)c1ccccn1)C(C)C` (stereo not drawn) [Disopyramide] was tested. Which Z-score did it give?
Answer: −1.1535

Question: How did the Z-score turn out when `CCN(CC)C(=S)SSC(=S)N(CC)CC` [Disulfiram] was run?
Answer: 15.5036

Question: `C[C@]12N[C@H](Cc3ccccc31)c1ccccc12` [Dizocilpine maleate] was tested. Which Z-score did it give?
Answer: −1.1505

Question: `CC(CCc1ccc(O)cc1)NCCc1ccc(O)c(O)c1` (stereo not drawn) [Dobutamine hydrochloride] was tested. Which Z-score did it give?
Answer: −0.4732

Question: For `CCN[C@H]1C[C@H](C)S(=O)(=O)c2sc(S(N)(=O)=O)cc21` [Dorzolamide hydrochloride], which Z-score is on record?
Answer: 1.587

Question: Which Z-score does the source give for `CN(C)CC/C=C1\c2ccccc2CSc2ccccc21` [Dosulepin hydrochloride] here?
Answer: 0.00689

Question: With `COc1cc2nc(N3CCN(C(=O)C4COc5ccccc5O4)CC3)nc(N)c2cc1OC` (stereo not drawn) [Doxazosin mesylate] as the compound, how does the Z-score read?
Answer: −1.0121

Question: How did the Z-score turn out when `CN(C)CCC=C1c2ccccc2COc2ccccc21` [Doxepin hydrochloride] was run?
Answer: −1.0091

Question: For `COc1cccc2c1C(=O)c1c(O)c3c(c(O)c1C2=O)C[C@@](O)(C(=O)CO)C[C@@H]3O[C@H]1C[C@H](N)[C@H](O)[C@H](C)O1` [Doxorubicin hydrochloride], which Z-score is on record?
Answer: 32.6438

Question: For `C[C@H]1c2cccc(O)c2C(=O)C2=C(O)[C@]3(O)C(=O)C(C(N)=O)=C(O)[C@@H](N(C)C)[C@@H]3[C@@H](O)[C@@H]21` [Doxycycline hydrochloride], which Z-score is on record?
Answer: 2.356

Question: Which Z-score does the source give for `CN(C)CCOC(C)(c1ccccc1)c1ccccn1` (stereo not drawn) [Doxylamine succinate] here?
Answer: 0.07172

Question: How did the Z-score turn out when `CCN(CC)CCOC(=O)C(c1ccccc1)C1CCCCC1` (stereo not drawn) [Drofenine hydrochloride] was run?
Answer: −0.0455

Question: With `O=C(CCCN1CC=C(n2c(=O)[nH]c3ccccc32)CC1)c1ccc(F)cc1` [Droperidol] as the compound, how does the Z-score read?
Answer: −0.5996

Question: How did the Z-score turn out when `COc1c2c(nc3ccccc13)OC(C(C)(O)CO)C2` (stereo not drawn) [Dubinidine] was run?
Answer: 0.2385

Question: With `CCCCOc1ccc(C(=O)CCN2CCCCC2)cc1` [Dyclonine hydrochloride] as the compound, how does the Z-score read?
Answer: −1.4276

Question: With `CC(=O)[C@H]1CC[C@H]2[C@@H]3C=CC4=CC(=O)CC[C@@]4(C)[C@@H]3CC[C@]12C` [Dydrogesterone] as the compound, how does the Z-score read?
Answer: −0.7044

Question: With `O=c1c2ccccc2[se]n1-c1ccccc1` [Ebselen] as the compound, how does the Z-score read?
Answer: −1.5273

Question: With `Clc1ccc(COC(Cn2ccnc2)c2ccc(Cl)cc2Cl)cc1` (stereo not drawn) [Econazole nitrate] as the compound, how does the Z-score read?
Answer: −0.8488

Question: How did the Z-score turn out when `CC[N+](C)(C)c1cccc(O)c1` [Edrophonium chloride] was run?
Answer: 0.4533

Question: With `Cc1c2ccncc2c(C)c2c1[nH]c1ccccc12` [Ellipticine] as the compound, how does the Z-score read?
Answer: 36.711

Question: Which Z-score does the source give for `CC[C@H]1CN2CCc3cc(OC)c(OC)cc3[C@@H]2C[C@@H]1C[C@H]1NCCc2cc(OC)c(OC)cc21` [Emetine dihydrochloride] here?
Answer: 32.7653

Question: Which Z-score does the source give for `CCOC(=O)[C@H](CCc1ccccc1)N[C@@H](C)C(=O)N1CCC[C@H]1C(=O)O` [Enalapril maleate] here?
Answer: 0.1645

Question: `C=CCOC(Cn1ccnc1)c1ccc(Cl)cc1Cl` (stereo not drawn) [Enilconazole] was tested. Which Z-score did it give?
Answer: −0.0014

Question: Which Z-score does the source give for `CCn1cc(C(=O)O)c(=O)c2cc(F)c(N3CCNCC3)nc21` [Enoxacin] here?
Answer: −0.7386

Question: With `Oc1cc(O)c2c(c1)O[C@H](c1ccc(O)c(O)c1)[C@H](O)C2` [Epicatechin-(−)] as the compound, how does the Z-score read?
Answer: 0.9251

Question: Which Z-score does the source give for `COc1cc(C)nc(-n2nc(C)cc2OC)n1` [Epirizole] here?
Answer: −0.7031

Question: For `C[C@]12C[C@H]3S[C@H]3C[C@@H]1CC[C@@H]1[C@@H]2CC[C@]2(C)[C@@H](O)CC[C@@H]12` [Epitiostanol], which Z-score is on record?
Answer: −1.7564

Question: With `CC[C@]12CCCN3CCc4c(n(c5ccccc45)[C@](O)(C(=O)OC)C1)[C@@H]32` [Epivincamine] as the compound, how does the Z-score read?
Answer: 0.1161

Question: How did the Z-score turn out when `C[C@]12CC[C@H]3C(=CCc4cc(O)ccc43)[C@@H]1CCC2=O` [Equilin] was run?
Answer: −1.0652

Question: `CC(C)C[C@H]1C(=O)N2CCC[C@H]2[C@]2(O)O[C@](NC(=O)[C@@H]3C=C4c5cccc6[nH]cc(c56)C[C@H]4N(C)C3)(C(C)C)C(=O)N12` [Ergocryptine-alpha] was tested. Which Z-score did it give?
Answer: −0.2816

Question: Which Z-score does the source give for `CC[C@H]1OC(=O)[C@H](C)[C@@H](O[C@H]2C[C@@](C)(OC)[C@@H](O)[C@H](C)O2)[C@H](C)[C@@H](O[C@@H]2O[C@H](C)C[C@H](N(C)C)[C@H]2O)[C@](C)(O)C[C@@H](C)C(=O)[C@H](C)[C@@H](O)[C@]1(C)O` [Erythromycin] here?
Answer: 1.131

Question: How did the Z-score turn out when `O=c1ccc2cc(O)c(O)cc2o1` [Esculetin] was run?
Answer: −0.9295

Question: For `O=c1ccc2cc(O[C@@H]3O[C@H](CO)[C@@H](O)[C@H](O)[C@H]3O)c(O)cc2o1` [Esculin Hydrate], which Z-score is on record?
Answer: −1.2808

Question: For `C[C@]12CC[C@@H]3c4ccc(O)cc4CC[C@H]3[C@@H]1CC[C@@H]2O` [Estradiol-17 beta], which Z-score is on record?
Answer: −0.9541

Question: How did the Z-score turn out when `C[C@]12CC[C@@H]3c4ccc(O)cc4CC[C@H]3[C@@H]1C[C@@H](O)[C@@H]2O` [Estriol] was run?
Answer: 0.06999

Question: For `C[C@]12CC[C@@H]3c4ccc(O)cc4CC[C@H]3[C@@H]1CCC2=O` [Estrone], which Z-score is on record?
Answer: −1.8166

Question: `C[C@]12CC[C@@H]3c4ccc(OS(=O)(=O)O)cc4CC[C@H]3[C@@H]1CCC2=O` [Estropipate] was tested. Which Z-score did it give?
Answer: −1.7711

Question: `O=C(Cn1ccnc1[N+](=O)[O-])NCCO` [Etanidazole] was tested. Which Z-score did it give?
Answer: 0.6681

Question: With `C=C(CC)C(=O)c1ccc(OCC(=O)O)c(Cl)c1Cl` [Ethacrynic acid] as the compound, how does the Z-score read?
Answer: −0.302

Question: `CC[C@@H](CO)NCCN[C@@H](CC)CO` [Ethambutol dihydrochloride] was tested. Which Z-score did it give?
Answer: −0.6303

Question: How did the Z-score turn out when `CCN(CC)C(=O)c1ccc(O)c(OC)c1` [Ethamivan] was run?
Answer: −0.565

Question: With `O=S(=O)(O)c1cc(O)ccc1O` [Ethamsylate] as the compound, how does the Z-score read?
Answer: 0.04738

Question: `CCOc1ccc(Cc2nccc3cc(OCC)c(OCC)cc23)cc1OCC` [Ethaverine hydrochloride] was tested. Which Z-score did it give?
Answer: 17.3528

Question: Which Z-score does the source give for `CCc1cc(C(N)=S)ccn1` [Ethionamide] here?
Answer: −0.9932

Question: For `C#C[C@]1(O)CC[C@H]2[C@@H]3CCC4=CC(=O)CC[C@]4(C)[C@H]3CC[C@@]21C` [Ethisterone], which Z-score is on record?
Answer: −0.2541

Question: With `CCN(CC)C(C)CN1c2ccccc2Sc2ccccc21` (stereo not drawn) [Ethopropazine hydrochloride] as the compound, how does the Z-score read?
Answer: −1.7382

Question: `CCC1(C)CC(=O)NC1=O` (stereo not drawn) [Ethosuximide] was tested. Which Z-score did it give?
Answer: 1.076

Question: For `CCN1C(=O)NC(c2ccccc2)C1=O` (stereo not drawn) [Ethotoin], which Z-score is on record?
Answer: −0.7327

Question: Which Z-score does the source give for `CCOc1ccc2c(c1)C(C)=CC(C)(C)N2` [Ethoxyquin] here?
Answer: −0.0471

Question: `C#C[C@]1(OC(C)=O)CC[C@H]2[C@@H]3CCC4=C[C@@H](OC(C)=O)CC[C@@H]4[C@H]3CC[C@@]21C` [Ethynodiol diacetate] was tested. Which Z-score did it give?
Answer: −1.4458

Question: Which Z-score does the source give for `C#C[C@]1(O)CC[C@H]2[C@@H]3CCc4cc(OC)ccc4[C@H]3CC[C@@]21C` [Ethynylestradiol 3-methyl ether] here?
Answer: −0.93

Question: `CC(O)(P(=O)(O)O)P(=O)(O)O` [Etidronic acid, disodium salt] was tested. Which Z-score did it give?
Answer: −0.1368

Question: `CCc1cccc(CC)c1NC(=O)CN(CC(=O)O)CC(=O)O` [Etifenin] was tested. Which Z-score did it give?
Answer: −1.0427

Question: Which Z-score does the source give for `CCNCC(O)c1cccc(O)c1` (stereo not drawn) [Etilefrine hydrochloride] here?
Answer: 0.1398
